Experiments:
PABPN1 [1] = target: T1, PABPN1 (Homo sapiens, UniProt Q86U42); assay: ANS fluorescence titration; format: binding
T1 construct: recombinant full-length (306 aa for normal PABPN1, 10-Ala tract, N-terminus M-(A)10-GAAGGRG); details in supplement S1
T1 sequence (Q86U42 1-306): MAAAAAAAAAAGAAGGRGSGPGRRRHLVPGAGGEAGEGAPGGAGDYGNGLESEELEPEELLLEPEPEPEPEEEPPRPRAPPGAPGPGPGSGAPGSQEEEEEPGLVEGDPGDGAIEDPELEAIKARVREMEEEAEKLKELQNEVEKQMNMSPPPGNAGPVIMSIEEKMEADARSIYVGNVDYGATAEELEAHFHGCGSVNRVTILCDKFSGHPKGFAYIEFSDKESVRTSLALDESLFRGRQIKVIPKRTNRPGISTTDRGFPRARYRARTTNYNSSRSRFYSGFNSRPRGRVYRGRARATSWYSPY

PABPN1 [2] = target: T2, PABPN1 (Homo sapiens, UniProt Q86U42, INS11AAAAAAA); assay: ANS fluorescence titration; format: binding
T2 construct: recombinant full-length (306 aa for normal PABPN1, 10-Ala tract, N-terminus M-(A)10-GAAGGRG); details in supplement S1
T2 sequence (Q86U42 with tags, fused parts or gaps INS11AAAAAAA): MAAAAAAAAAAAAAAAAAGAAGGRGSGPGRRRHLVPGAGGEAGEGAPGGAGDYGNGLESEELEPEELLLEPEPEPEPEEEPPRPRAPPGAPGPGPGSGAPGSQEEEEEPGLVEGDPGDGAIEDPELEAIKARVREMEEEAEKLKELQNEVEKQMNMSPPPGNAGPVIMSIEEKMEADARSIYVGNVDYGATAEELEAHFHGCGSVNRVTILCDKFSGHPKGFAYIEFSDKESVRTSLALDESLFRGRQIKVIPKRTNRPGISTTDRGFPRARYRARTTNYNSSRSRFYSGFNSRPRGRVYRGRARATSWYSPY

Kd (PABPN1 [1]): 75 µM
Kd (PABPN1 [2]): 42 µM
SMILES: O=S(=O)(O)c1cccc2cccc(Nc3ccccc3)c12 [1-Anilino naphthalene-8-sulfonic acid]
